Laboratory results: US10552557B2, “Freshening compositions and devices comprising same” (The Procter & Gamble Company, priority 2014, dated 2020)

Experiment: Blocker Index (BI), expert graders, isovaleric acid malodorous swatch treated with test material
Text: Blocker materials suitable for use in consumer products of the present invention are chosen for their ability to decrease malodor, while not interfering with perception of a fragrance. Material selection is done by assigning two indices to a test sample material from two reference scales in order to rank odor strengths. The two reference scales are the Fragrance Fidelity Index (FFI) scale and the Blocker Index (BI) scale. The FFI ranks the ability of the test sample material to impart a perceivable odor which could cause interference when combined with another fragrance and the BI ranks the ability of the test sample material to reduce malodor perception. The two methods for assigning the indices to a test sample on the FFI and the BI reference scales are given below.
The first step in the method for assigning a BI to a test sample material on the BI reference scale is to create the BI reference swatches. […] Fabric swatches for this test are white knit polycotton (4 inch×4 inch) swatches from EMC ordered as PC 50/50. The supplier is instructed to strip the swatches first, stripping involves washing twice with a fragrance-free detergent and rinsing three times.
The BI scale contains one clean swatch with no malodor applied. […] These solutions are pipetted to the middle of the swatches. […] After drying for 30 minutes in a vented hood, the swatches are wrapped in aluminum foil to prevent odor contamination to the treated swatch. A clean untreated swatch is also included as the lowest anchor point of reference for malodor strength on the BI scale. The BI reference scale swatches should be used within 0.5 to 12 hours and discarded after 12 hours. The swatches are used as scale anchor points when graders evaluate a test sample(s) and are assigned a Blocker Index (BI) as show in Table 12.
The perfumer/expert grader is asked to rank order swatches according to a scale between 0 and 3.
The reference swatches represent the 0, 1, 2, and 3 BIs on the BI reference scale, Table 12. The expert grader should familiarizes him/herself with the strength of the odor on the BI reference swatches by sniffing each one starting at 0 (the lowest odor strength) and ending at 3 (the highest odor strength). This should be done prior to evaluating the swatch treated with the test material.
To evaluate the BI, the test material is applied to a malodorous swatch to determine how well the test material blocks the malodor. […] After drying the malodorous swatch a known concentration of test material solution, between 1 ppm and 100 ppm is pipetted onto the malodorous swatch. […] It is sometimes necessary to evaluate several levels of the test material between about 1 and about 100 ppm to determine the BI.
At least two perfumers/expert graders are used to assign the BI to the test sample. […] The test sample swatch is assigned a BI at or between numbers on the BI in table.

[1] = Conc 10 ppm test material on isovaleric acid malodorous swatch
[2] = Conc 50 ppm test material on isovaleric acid malodorous swatch

SMILES | BI [1] | BI [2] | BI of reference swatch, Ave (2 μL 0.08% solution, all graders (Table 10))
CC1(C)CCc2ccc(CCC=O)cc21 | 1.5 | 2.7 | 
CC1CCC2(C(C)C)CC(C)OC2C1 (stereo not shown) | 2.0 | 2.2 | 
CCC(=O)OC1CC2C3C=CCC3C1C2(C)C (stereo not shown) [8,8-dimethyl-3a,4,5,6,7,7a-hexahydro-1H-4,7-methanoinden-6-yl propionate] | 1.5 | 2.2 | 
CC(C)CC(=O)O [isovaleric acid, reference compound] |  |  | 1.0
